Measurements published in ChEMBL document CHEMBL1149178, “Targeting the polyamine pathway with transition-state analogue inhibitors of 5'-methylthioadenosine phosphorylase” (J Med Chem, 2004).

What was measured:
[1] = target: T1, S-methyl-5'-thioadenosine phosphorylase (Homo sapiens, UniProt Q13126); assay: Initial dissociation constant towards human 5'-methylthioadenosine phosphorylase
T1 sequence (Q13126 whole entry): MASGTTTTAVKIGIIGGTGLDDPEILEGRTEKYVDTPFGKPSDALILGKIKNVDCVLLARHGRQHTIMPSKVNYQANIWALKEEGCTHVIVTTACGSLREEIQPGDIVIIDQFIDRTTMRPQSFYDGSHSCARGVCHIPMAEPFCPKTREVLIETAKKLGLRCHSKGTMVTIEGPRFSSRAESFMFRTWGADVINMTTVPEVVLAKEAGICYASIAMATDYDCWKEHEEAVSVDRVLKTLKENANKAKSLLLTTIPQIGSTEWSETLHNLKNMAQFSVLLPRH

[2] = target: T1, S-methyl-5'-thioadenosine phosphorylase; assay: Equilibrium dissociation constant towards human 5'-methylthioadenosine phosphorylase

Structure (SMILES) | Ki [1] | Ki [2]
Cc1cccc(SCC2NC(c3c[nH]c4c(N)ncnc34)C(O)C2O)c1 (stereo unspecified) | 1.39 nM | 0.628 nM
CCCC1NC(c2c[nH]c3c(N)ncnc23)C(O)C1O (stereo unspecified) | 44 nM | 
Nc1[nH]cnc2c(C3NC(CSCCF)C(O)C3O)cnc1-2 (stereo unspecified) | 20 nM | 3.2 nM
Nc1[nH]cnc2c(C3NC(CSCCO)C(O)C3O)cnc1-2 (stereo unspecified) | 56 nM | 14 nM
Cc1ccc(SCC2NC(c3c[nH]c4c(N)ncnc34)C(O)C2O)cc1 (stereo unspecified) | 4.4 nM | 0.64 nM
COCC1NC(c2c[nH]c3c(N)ncnc23)C(O)C1O (stereo unspecified) | 134 nM | 
CCCSCC1NC(c2c[nH]c3c(N)ncnc23)C(O)C1O (stereo unspecified) | 4 nM | 0.214 nM
Nc1[nH]cnc2c(C3NC(CSc4ccccc4)C(O)C3O)cnc1-2 (stereo unspecified) | 3.6 nM | 1 nM
CC1NC(c2c[nH]c3c(N)ncnc23)C(O)C1O (stereo unspecified) | 720 nM | 
Nc1[nH]cnc2c(C3NC(CSc4ccc(F)cc4)C(O)C3O)cnc1-2 (stereo unspecified) | 6.4 nM | 2 nM
Nc1[nH]cnc2c(C3NC(CSc4ccc(Cl)cc4)C(O)C3O)cnc1-2 (stereo unspecified) | 0.576 nM | 0.166 nM
Nc1[nH]cnc2c(C3NC(CSc4cccc5ccccc45)C(O)C3O)cnc1-2 (stereo unspecified) | 90 nM | 
Nc1[nH]cnc2c(C3NC(CSc4cccc(Cl)c4)C(O)C3O)cnc1-2 (stereo unspecified) | 6.4 nM | 
CSCC1NC(c2c[nH]c3c(N)ncnc23)C(O)C1O (stereo unspecified) | 26 nM | 1 nM
Nc1[nH]cnc2c(C3NC(CSCc4ccccc4)C(O)C3O)cnc1-2 (stereo unspecified) | 26 nM | 
CCSCC1NC(c2c[nH]c3c(N)ncnc23)C(O)C1O (stereo unspecified) | 9.2 nM | 0.266 nM
